Measurements from ChEMBL document CHEMBL5143704, “Discovery of 2,4-diarylaminopyrimidine derivatives bearing dithiocarbamate moiety as novel ALK inhibitors” (Bioorg Med Chem, 2022).

Legend:
[1] = system: A549; assay: cells; details: Homo sapiens, A549, 96 h
Description: Antiproliferative activity against ALK-negative human A549 cells assessed as inhibition of cell growth incubated for 96 hrs by MTT assay

[2] = system: NCI-H2228; assay: Induction of apoptosis in human NCI-H2228 cells assessed as necrotic at 0.6 uM incubated for 48 hrs by annexinV-FITC/propidium iodide staining based flow cytometry analysis (reference value: 2.12%); assay type: functional
[3] = system: HCT-116; assay: cells; details: Homo sapiens, HCT-116, 96 h
Description: Antiproliferative activity against ALK-negative human HCT-116 cells assessed as inhibition of cell growth incubated for 96 hrs by MTT assay

[4] = system: NCI-H2228; assay: Induction of apoptosis in human NCI-H2228 cells assessed as viable cells at 0.6 uM incubated for 48 hrs by annexinV-FITC/propidium iodide staining based flow cytometry analysis (reference value: 93.63%); assay type: functional; details: read-out: Activity
[5] = system: NCI-H2228; assay: Induction of cell cycle arrest in human NCI-H2228 cells assessed as accumulation of cells at G1 phase at 0.2 uM incubated for 48 hrs propidium iodide staining based flow cytometric analysis (reference value: 59.82%); assay type: functional
[6] = system: NCI-H2228; assay: cells; details: Homo sapiens, NCI-H2228, 96 h
Description: Antiproliferative activity against EML4-ALK positive human NCI-H2228 cells assessed as inhibition of cell growth incubated for 96 hrs by MTT assay

[7] = system: NCI-H2228; assay: Induction of apoptosis in human NCI-H2228 cells assessed as viable cells at 0.2 uM incubated for 48 hrs by annexinV-FITC/propidium iodide staining based flow cytometry analysis (reference value: 93.63%); assay type: functional; details: read-out: Activity
[8] = system: NCI-H2228; assay: Induction of cell cycle arrest in human NCI-H2228 cells assessed as accumulation of cells at S phase at 1.8 uM incubated for 48 hrs propidium iodide staining based flow cytometric analysis (reference value: 28.16%); assay type: functional
[9] = system: NCI-H2228; assay: Induction of cell cycle arrest in human NCI-H2228 cells assessed as accumulation of cells at G1 phase at 0.6 uM incubated for 48 hrs propidium iodide staining based flow cytometric analysis (reference value: 59.82%); assay type: functional
[10] = system: NCI-H2228; assay: Induction of apoptosis in human NCI-H2228 cells assessed as early apoptotic cells at 0.2 uM incubated for 48 hrs by annexinV-FITC/propidium iodide staining based flow cytometry analysis (reference value: 1.84%); assay type: functional
[11] = system: NCI-H2228; assay: Induction of apoptosis in human NCI-H2228 cells assessed as necrotic at 1.8 uM incubated for 48 hrs by annexinV-FITC/propidium iodide staining based flow cytometry analysis (reference value: 2.12%); assay type: functional
[12] = system: NCI-H2228; assay: Induction of cell cycle arrest in human NCI-H2228 cells assessed as accumulation of cells at S phase at 0.2 uM incubated for 48 hrs propidium iodide staining based flow cytometric analysis (reference value: 28.16%); assay type: functional
[13] = system: NCI-H2228; assay: Induction of cell cycle arrest in human NCI-H2228 cells assessed as accumulation of cells at S phase at 0.6 uM incubated for 48 hrs propidium iodide staining based flow cytometric analysis (reference value: 28.16%); assay type: functional
[14] = system: NCI-H2228; assay: Induction of apoptosis in human NCI-H2228 cells assessed as viable cells at 1.8 uM incubated for 48 hrs by annexinV-FITC/propidium iodide staining based flow cytometry analysis (reference value: 93.63%); assay type: functional; details: read-out: Activity
[15] = system: NCI-H2228; assay: Induction of apoptosis in human NCI-H2228 cells assessed as late apoptotic cells at 1.8 uM incubated for 48 hrs by annexinV-FITC/propidium iodide staining based flow cytometry analysis (reference value: 2.40%); assay type: functional
[16] = system: NCI-H2228; assay: Induction of apoptosis in human NCI-H2228 cells assessed as late apoptotic cells at 0.2 uM incubated for 48 hrs by annexinV-FITC/propidium iodide staining based flow cytometry analysis (reference value: 2.40%); assay type: functional
[17] = system: NCI-H2228; assay: Induction of cell cycle arrest in human NCI-H2228 cells assessed as accumulation of cells at G2/M phase at 0.6 uM incubated for 48 hrs propidium iodide staining based flow cytometric analysis (reference value: 12.02%); assay type: functional
[18] = system: NCI-H2228; assay: Induction of apoptosis in human NCI-H2228 cells assessed as late apoptotic cells at 0.6 uM incubated for 48 hrs by annexinV-FITC/propidium iodide staining based flow cytometry analysis (reference value: 2.40%); assay type: functional
[19] = system: NCI-H2228; assay: Induction of cell cycle arrest in human NCI-H2228 cells assessed as accumulation of cells at G2/M phase at 0.2 uM incubated for 48 hrs propidium iodide staining based flow cytometric analysis (reference value: 12.02%); assay type: functional
[20] = system: NCI-H2228; assay: Induction of apoptosis in human NCI-H2228 cells assessed as necrotic at 0.2 uM incubated for 48 hrs by annexinV-FITC/propidium iodide staining based flow cytometry analysis (reference value: 2.12%); assay type: functional
[21] = system: NCI-H2228; assay: Induction of cell cycle arrest in human NCI-H2228 cells assessed as accumulation of cells at G1 phase at 1.8 uM incubated for 48 hrs propidium iodide staining based flow cytometric analysis (reference value: 59.82%); assay type: functional
[22] = system: NCI-H2228; assay: Induction of cell cycle arrest in human NCI-H2228 cells assessed as accumulation of cells at G2/M phase at 1.8 uM incubated for 48 hrs propidium iodide staining based flow cytometric analysis (reference value: 12.02%); assay type: functional
[23] = system: NCI-H2228; assay: Induction of apoptosis in human NCI-H2228 cells assessed as early apoptotic cells at 0.6 uM incubated for 48 hrs by annexinV-FITC/propidium iodide staining based flow cytometry analysis (reference value: 1.84%); assay type: functional
[24] = system: KARPAS-299; assay: cells; details: Homo sapiens, KARPAS-299, 96 h
Description: Antiproliferative activity against NPM-ALK positive human KARPAS-299 cells assessed as inhibition of cell growth incubated for 96 hrs by CCK-8 assay

[25] = system: NCI-H2228; assay: Induction of apoptosis in human NCI-H2228 cells assessed as early apoptotic cells at 1.8 uM incubated for 48 hrs by annexinV-FITC/propidium iodide staining based flow cytometry analysis (reference value: 1.84%); assay type: functional

Q: Cc1cc(Nc2ncc(Cl)c(Nc3ccccc3S(=O)(=O)C(C)C)n2)c(OC(C)C)cc1C1CCN(C(=O)SCC(=S)N2CCS(=O)(=O)CC2)CC1 was tested. Which IC50 [1] did it give?
A: > 10 µM

Q: And the Activity [2]?
A: 3.5%

Q: What about the IC50 [3] of the same compound?
A: 5.53 µM

Q: What about the viability at 0.6 µM [4] of the same compound?
A: 84.4%

Q: And the Activity [5]?
A: 59.7%

Q: What about the IC50 [6] of the same compound?
A: 70 nM

Q: What about the viability at 0.2 µM [7] of the same compound?
A: 89.8%

Q: What about the Activity [8] of the same compound?
A: 16.1%

Q: And the Activity [9]?
A: 59.11%

Q: And the Activity [10]?
A: 4.31%

Q: What about the Activity [11] of the same compound?
A: 4.04%

Q: And the Activity [12]?
A: 24.71%

Q: What about the Activity [13] of the same compound?
A: 22.74%

Q: What about the viability at 1.8 µM [14] of the same compound?
A: 79.1%

Q: What about the Activity [15] of the same compound?
A: 8.06%

Q: What about the Activity [16] of the same compound?
A: 3.65%

Q: And the Activity [17]?
A: 18.15%

Q: What about the Activity [18] of the same compound?
A: 6.37%

Q: And the Activity [19]?
A: 15.59%

Q: What about the Activity [20] of the same compound?
A: 2.24%

Q: And the Activity [21]?
A: 56.55%

Q: And the Activity [22]?
A: 27.35%

Q: And the Activity [23]?
A: 5.7%

Q: And the IC50 [24]?
A: 70 nM

Q: What about the Activity [25] of the same compound?
A: 8.84%
